Results published in patent publication US20250339567A1, “COMPOUNDS WITH IMPROVED PHARMACOKINETICS FOR IMAGING AND THERAPY OF CANCER” (priority 2019, published 2025).
Starred links: 1 amine or outer side, 2 acyl side, 3 side chain; linkers in the order of their positions; H or OH if unused. Non-standard residues stand in square brackets, D forms with d. Residues, ends and D or L forms follow the SMILES beside them. *: point of attachment. DOTAGA = O=C(O)CN1CCN(CC(=O)O)CCN(C(CCC(=O)*)C(=O)O)CCN(CC(=O)O)CC1; Benzoyl(4-SiFtBu2) = CC(C)(C)[Si](F)(c1ccc(C(=O)*)cc1)C(C)(C)C; d(γGlu) = O=C(O)[C@@H](CCC(=O)[*:2])N[*:1]; Sta = CC(C)C[C@H](N)[C@@H](O)CC(=O)O; X1 = O=C(CN1CCC(N[*:1])CC1)[*:2]; dOrn = NCCC[C@@H](N)C(=O)O; dDap = NC[C@@H](N)C(=O)O; CO = O=C([*:1])[*:2]

Legend:
[1] = n-Octanol-PBS distribution coefficient, log D7.4; format: physicochemical; details: for log D7.4 (n = 6), ^177Lu-labeled: Table 6, 177Lu-labeled Bombesin-SiFA compounds
Protocol: Approximately 1 MBq of the labeled tracer was dissolved in 1 mL of a 1:1 mixture (v/v) of phosphate buffered saline (PBS, pH=7.4) and n-octanol in an Eppendorf tube. After vigorous mixing of the suspension for 3 min at room temperature, the vial was centrifuged at 9000 rpm for 5 min (Biofuge 15, Heraus Sepatech, Osterode, Germany) and 200 μL aliquots of both layers were measured in a γ-counter. The experiment was repeated at least four times.

GRPR = molecular target: T1, GRPR (Homo sapiens, UniProt P30550); test: Determination of GRPR affinity (IC50), competition with [D-3-[125I]I-Tyr6]MJ9 on PC-3 cells; format: binding; details: Table 6, natLu-labeled, [D-3-[125I]I-Tyr6]MJ9 (c = 0.2 nM), 2 h, r.t.
T1 construct: endogenous in cells; host or cells: PC-3 cells
T1 sequence (P30550 whole entry): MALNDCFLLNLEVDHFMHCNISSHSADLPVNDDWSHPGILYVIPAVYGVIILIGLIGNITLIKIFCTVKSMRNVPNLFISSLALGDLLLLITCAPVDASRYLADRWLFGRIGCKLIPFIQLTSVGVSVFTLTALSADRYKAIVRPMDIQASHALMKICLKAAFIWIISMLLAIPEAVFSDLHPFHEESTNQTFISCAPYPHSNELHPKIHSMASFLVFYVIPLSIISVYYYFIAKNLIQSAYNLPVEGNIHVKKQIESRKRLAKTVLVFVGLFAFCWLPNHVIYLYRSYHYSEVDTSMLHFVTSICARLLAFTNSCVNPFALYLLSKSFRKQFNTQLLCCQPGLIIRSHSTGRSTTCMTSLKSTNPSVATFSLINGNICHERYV
Protocol: The reference ligand for IC50 studies ([D-3-[^125I]I-Tyr^6]MJ9) is prepared according to a previously published procedure. Briefly, 0.2 mg of [D-Tyr^6]MJ9 are dissolved in 20 μL Tracepur water and 280 μL TRIS buffer (25 mm TRIS HCl, 0.4 M NaCl, pH=7.9). After addition of the solution to a vial containing 150 μg Iodo-Gen® (1,3,4,6-Tetrachloro-3α,6α-diphenylglycouril, surface-bound), 5.0 μL (16 MBq) [^125I]Nal(74 TBq/mmol, 3.1 GBq/mL, 40 mM NaOH, Hartmann Analytic, Braunschweig, Germany) are added.
The GRPR-positive PC-3 cells are cultured in Dublecco modified Eagle medium/Nutrition Mixture F-12 with Glutamax-I (1:1) (Invitrigon), supplemented with 10% fetal calf serum and maintained at 37° C. in a humidified 5% CO2 atmosphere.
After removal of the culture medium, the cells are washed once with 500 μL of HBSS (Hank's balanced salt solution, Biochrom, Berlin, Germany, with addition of 1% bovine serum albumin (BSA)) and left in 200 μL HBSS (1% BSA) for 9 min at room temperature for equilibration. Next, 25 μL per well of solutions, containing either HBSS (1% BSA) as control or the respective ligand in increasing concentration (10^−10 M-10^−4 M in HBSS), are added with subsequent addition of 25 μL of [D-3-[^125I]I-Tyr^6]MJ9 (2.0 nM) in HBSS (1% BSA).
All experiments are performed in triplicate for each concentration. After 2 h incubation at room temperature, the experiment is terminated by removal of the medium and consecutive rinsing with 300 μL of HBSS. The media of both steps are combined in one fraction and represent the amount of free radiolabeled reference. Afterwards, the cells are lysed with 300 μL of 1 M NaOH for at least 15 min and united with the 300 μL NaOH of the following washing step. Quantification of bound and free radiolabeled reference is accomplished in a γ-counter.
IC50 determination for each ligand was repeated twice.

| log D7.4 ± SD (n = 8) ([1]; 177Lu-labeled ligand, n-octanol/PBS pH 7.4) | SMILES | IC50 [nM], ^natLu-labeled (n = 3) (GRPR) | log D7.4 (n = 6), ^177Lu-labeled [1] |
| --- | --- | --- | --- |
| −2.51 ± 0.11 | CC(C)C[C@H](NC(=O)C[C@H](O)[C@H](CC(C)C)NC(=O)[C@H](Cc1c[nH]cn1)NC(=O)CNC(=O)[C@@H](NC(=O)[C@H](C)NC(=O)[C@](C)(Cc1c[nH]c2ccccc12)NC(=O)[C@H](CCC(N)=O)NC(=O)[C@@H](Cc1ccccc1)NC(=O)CN1CCC(NC(=O)CCC(C(=O)O)N2CCN(CC(=O)O)CCN(CC(=O)O)CCN(CC(=O)O)CC2)CC1)C(C)C)C(N)=O (single isomer, unassigned) [AMTG2] | – | – |
| – | CC(C)C[C@H](NC(=O)C[C@H](O)[C@H](CC(C)C)NC(=O)[C@H](Cc1c[nH]cn1)NC(=O)CNC(=O)[C@@H](NC(=O)[C@H](C)NC(=O)[C@H](Cc1c[nH]c2ccccc12)NC(=O)[C@H](CCC(N)=O)NC(=O)[C@@H](Cc1ccccc1)NC(=O)CN1CCC(NC(=O)[C@@H](CN)NC(=O)[C@@H](CCCN)NC(=O)[C@@H](CC(=O)O)NC(=O)[C@@H](CC(=O)O)NC(=O)[C@@H](CNC(=O)CCC(C(=O)O)N2CCN(CC(=O)O)CCN(CC(=O)O)CCN(CC(=O)O)CC2)NC(=O)[C@@H](CNC(=O)c2ccc([Si](F)(C(C)(C)C)C(C)(C)C)cc2)NC(=O)CC[C@@H](NC(=O)N[C@H](CCC(=O)O)C(=O)O)C(=O)O)CC1)C(C)C)C(N)=O (stereo partly drawn) [GT50] ({dE-CO-d(γGlu)}-[dDap](Benzoyl(4-SiFtBu2))[dDap](DOTAGA)[dD][dD][dOrn][dDap][X1][dF]QWAVGH[Sta]L-NH2) | comparable range | −1.96 ± 0.15 |
| – | CC(C)C[C@H](NC(=O)C[C@H](O)[C@H](CC(C)C)NC(=O)[C@H](Cc1c[nH]cn1)NC(=O)CNC(=O)[C@@H](NC(=O)[C@H](C)NC(=O)[C@H](Cc1c[nH]c2ccccc12)NC(=O)[C@H](CCC(N)=O)NC(=O)[C@@H](Cc1ccccc1)NC(=O)CN1CCC(NC(=O)[C@@H](CN)NC(=O)[C@@H](CC(=O)O)NC(=O)[C@@H](CCCN)NC(=O)[C@@H](CNC(=O)CCC(C(=O)O)N2CCN(CC(=O)O)CCN(CC(=O)O)CCN(CC(=O)O)CC2)NC(=O)[C@@H](CNC(=O)c2ccc([Si](F)(C(C)(C)C)C(C)(C)C)cc2)NC(=O)CC[C@@H](NC(=O)N[C@H](CCC(=O)O)C(=O)O)C(=O)O)CC1)C(C)C)C(N)=O (stereo partly drawn) [GT51] ({dE-CO-d(γGlu)}-[dDap](Benzoyl(4-SiFtBu2))[dDap](DOTAGA)[dOrn][dD][dDap][X1][dF]QWAVGH[Sta]L-NH2) | slightly increased | −1.96 ± 0.15 |
| – | CC(C)C[C@H](NC(=O)C[C@H](O)[C@H](CC(C)C)NC(=O)[C@H](Cc1c[nH]cn1)NC(=O)CNC(=O)[C@@H](NC(=O)[C@H](C)NC(=O)[C@H](Cc1c[nH]c2ccccc12)NC(=O)[C@H](CCC(N)=O)NC(=O)[C@@H](Cc1ccccc1)NC(=O)CN1CCC(NC(=O)CN2CCC(NC(=O)CN3CCC(NC(=O)[C@@H](CC(=O)O)NC(=O)[C@@H](CNC(=O)CCC(C(=O)O)N4CCN(CC(=O)O)CCN(CC(=O)O)CCN(CC(=O)O)CC4)NC(=O)[C@@H](CNC(=O)c4ccc([Si](F)(C(C)(C)C)C(C)(C)C)cc4)NC(=O)CC[C@@H](NC(=O)N[C@H](CCC(=O)O)C(=O)O)C(=O)O)CC3)CC2)CC1)C(C)C)C(N)=O (stereo partly drawn) [GT52] ({dE-CO-d(γGlu)}-[dDap](Benzoyl(4-SiFtBu2))[dDap](DOTAGA)[dD][X1][X1][X1][dF]QWAVGH[Sta]L-NH2) | comparable range | −2.05 ± 0.08 |
| – | CC(C)C[C@H](NC(=O)C[C@H](O)[C@H](CC(C)C)NC(=O)[C@H](Cc1c[nH]cn1)NC(=O)CNC(=O)[C@@H](NC(=O)[C@H](C)NC(=O)[C@H](Cc1c[nH]c2ccccc12)NC(=O)[C@H](CCC(N)=O)NC(=O)[C@@H](Cc1ccccc1)NC(=O)CN1CCC(NC(=O)CN2CCC(NC(=O)[C@@H](CC(=O)O)NC(=O)[C@@H](CNC(=O)CCC(C(=O)O)N3CCN(CC(=O)O)CCN(CC(=O)O)CCN(CC(=O)O)CC3)NC(=O)[C@@H](CNC(=O)c3ccc([Si](F)(C(C)(C)C)C(C)(C)C)cc3)NC(=O)CC[C@@H](NC(=O)N[C@H](CCC(=O)O)C(=O)O)C(=O)O)CC2)CC1)C(C)C)C(N)=O (stereo partly drawn) [GT53] ({dE-CO-d(γGlu)}-[dDap](Benzoyl(4-SiFtBu2))[dDap](DOTAGA)[dD][X1][X1][dF]QWAVGH[Sta]L-NH2) | slightly increased | −1.81 ± 0.15 |
